Assay [1] addresses T1, rat GPR14 (U-II receptor) (Rattus norvegicus, UniProt P49684).
T1 construct: expressed in transfected cells
T1 sequence (P49684 1-386): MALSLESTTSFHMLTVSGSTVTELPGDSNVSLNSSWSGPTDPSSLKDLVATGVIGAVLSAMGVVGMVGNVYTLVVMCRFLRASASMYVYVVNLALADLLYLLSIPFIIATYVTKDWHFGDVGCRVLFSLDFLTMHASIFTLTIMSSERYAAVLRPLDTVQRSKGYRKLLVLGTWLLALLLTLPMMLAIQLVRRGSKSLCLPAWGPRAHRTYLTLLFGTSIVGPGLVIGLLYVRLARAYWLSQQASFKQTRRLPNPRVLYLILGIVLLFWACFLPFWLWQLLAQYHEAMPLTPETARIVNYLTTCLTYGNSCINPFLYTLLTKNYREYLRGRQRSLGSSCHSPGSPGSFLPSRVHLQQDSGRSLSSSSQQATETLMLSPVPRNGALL
Kind of assay: Rat UII Calcium Mobilization FLIPR Assay. It is filed as cell-based. The note with it: average value for the compound tested; read-out: Rat UII FLIPR Average IC50. The method, boiled down:
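CHO cells stably expressing rat U-II receptor, seeded 24 h before assay, were loaded with FLIPR calcium dye in HBSS/20 mM HEPES/0.1% BSA/2.5 mM probenecid, pH 7.4, for 1 h at 37° C. Calcium mobilization then read by FLIPR at 23° C.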

Assay [2] concerns the target T2, Human UII receptor, 6D9 human rhabdomyosarcoma cells (Homo sapiens, UniProt Q9UKP6).
T2 construct: 6D9: isolated by dilution subcloning of RMS13 cells, ATCC® Number: CRL-2061; host or cells: 6D9 human rhabdomyosarcoma cells (subclone of RMS13)
T2 sequence (Q9UKP6 1-389): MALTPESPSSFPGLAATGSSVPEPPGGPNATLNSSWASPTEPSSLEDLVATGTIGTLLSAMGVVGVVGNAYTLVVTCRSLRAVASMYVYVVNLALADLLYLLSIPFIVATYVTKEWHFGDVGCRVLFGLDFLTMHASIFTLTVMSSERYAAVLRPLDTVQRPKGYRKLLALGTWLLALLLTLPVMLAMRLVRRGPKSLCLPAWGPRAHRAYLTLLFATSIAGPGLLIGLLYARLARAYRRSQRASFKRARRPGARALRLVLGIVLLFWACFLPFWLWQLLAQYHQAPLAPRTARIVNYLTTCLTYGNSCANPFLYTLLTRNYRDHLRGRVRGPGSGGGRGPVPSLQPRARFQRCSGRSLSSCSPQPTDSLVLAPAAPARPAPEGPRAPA
Kind of assay: Human UII Calcium Mobilization Assay. It is filed as cell-based. To be noted: average value, FLIPR TETRA, read-out: Human UII Ca^+ Mobilization Average IC50. The method, boiled down: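 6D9 rhabdomyosarcoma cells loaded 45 min at 37° C with calcium dye (1.25 mM probenecid, 0.01% FBS, HBSS/20 mM HEPES). Antagonist and U-II agonist added at room temperature; FLIPR fluorescence read over 4 min; EC50/IC50 fitted. DMSO ≤0.1% final.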
(Calcium flux is commonly read through the fluorescence of an indicator in the cells.)

Assay [3] addresses T3, endogenous human UII receptor (Homo sapiens, UniProt Q9UKP6).
T3 sequence (Q9UKP6 1-389): T2 sequence (Q9UKP6 1-389)
Kind of assay: Human Radioligand Binding Assay ((^125I)-U-II binding to human skeletal muscle myoblasts).

Results on eight compounds are retold here after patent US8193191B2, “Urotensin II receptor antagonists” (Janssen Pharmaceutica N.V., priority 2006, dated 2012).

Turning to `COc1ccc([C@@H](CCCNC(=O)c2cccnc2)N2C(=O)c3cccc(N4CCN([C@H](C)c5ccccc5)CC4)c3C2=O)cc1OC` [Cpd 151, (R)-N-(4-(3,4-dimethoxy-phenyl)-4-{1,3-dioxo-4-[4-(1R)-(1-phenyl-ethyl)-piperazin-1-yl]-1,3-dihydro-isoindol-2-yl}-butyl)-nicotinamide], the IC50 in assay [1] is 14 nM; in assay [2], 1000 nM. Further, the Ki in assay [3] worked out at 74 nM.
`COc1ccc([C@@H](CCCNC(=O)c2cncn2C)N2C(=O)c3cccc(N4CCN([C@H](C)c5ccccc5)CC4)c3C2=O)cc1OC` [Cpd 152, (R)-3-methyl-3H-imidazole-4-carboxylic acid (4-(3,4-dimethoxy-phenyl)-4-{1,3-dioxo-4-[4-(1R)-(1-phenyl-ethyl)-piperazin-1-yl]-1,3-dihydro-isoindol-2-yl}-butyl)-amide]: the IC50 was found to be 17 nM in assay [1] and 660 nM in assay [2]. The affinity in assay [3] corresponds to a Ki of 69 nM.
Turning to `COc1ccc([C@@H](CCCNC(=O)c2cn(C)cn2)N2C(=O)c3cccc(N4CCN([C@H](C)c5ccccc5)CC4)c3C2=O)cc1OC` [Cpd 153, (R)-1-methyl-1H-imidazole-4-carboxylic acid (4-(3,4-dimethoxy-phenyl)-4-{1,3-dioxo-4-[4-(1R)-(1-phenyl-ethyl)-piperazin-1-yl]-1,3-dihydro-isoindol-2-yl}-butyl)-amide], the half-maximal inhibitory concentration (IC50) worked out at 13 nM in assay [1] and 1200 nM in assay [2]. The compound also returned a Ki in assay [3] of 88 nM.
For `COc1ccc([C@@H](CCCNC(=O)c2ccncc2)N2C(=O)c3cccc(N4CCN([C@H](C)c5ccccc5)CC4)c3C2=O)cc1OC` [Cpd 154, (R)-N-(4-(3,4-dimethoxy-phenyl)-4-{1,3-dioxo-4-[4-(1R)-(1-phenyl-ethyl)-piperazin-1-yl]-1,3-dihydro-isoindol-2-yl}-butyl)-isonicotinamide], in that order: 13 nM, 1200 nM and 84 nM.
For `COc1ccc([C@@H](CCCNC(=O)C2CCCO2)N2C(=O)c3cccc(N4CCN([C@H](C)c5ccccc5)CC4)c3C2=O)cc1OC` (stereo partly drawn) [Cpd 155, (R)-tetrahydro-furan-2-carboxylic acid (4-(3,4-dimethoxy-phenyl)-4-{1,3-dioxo-4-[4-(1R)-(1-phenyl-ethyl)-piperazin-1-yl]-1,3-dihydro-isoindol-2-yl}-butyl)-amide], in that order: 9.4 nM, 400 nM and 45 nM.
Turning to `COc1ccc([C@@H](CCCNC(=O)c2csc(C)n2)N2C(=O)c3cccc(N4CCN([C@H](C)c5ccccc5)CC4)c3C2=O)cc1OC` [Cpd 156, (R)-2-methyl-thiazole-4-carboxylic acid (4-(3,4-dimethoxy-phenyl)-4-{1,3-dioxo-4-[4-(1R)-(1-phenyl-ethyl)-piperazin-1-yl]-1,3-dihydro-isoindol-2-yl}-butyl)-amide], the half-inhibitory concentration (IC50) in assay [1] turned out to be 35 nM; in assay [2], 490 nM. In assay [3], this compound displayed a Ki of 84 nM.
For the compound `COc1ccc([C@@H](CCCNC(=O)c2ccc(S(C)(=O)=O)s2)N2C(=O)c3cccc(N4CCN([C@H](C)c5ccccc5)CC4)c3C2=O)cc1OC` [Cpd 157, (R)-5-methanesulfonyl-thiophene-2-carboxylic acid (4-(3,4-dimethoxy-phenyl)-4-{1,3-dioxo-4-[4-(1R)-(1-phenyl-ethyl)-piperazin-1-yl]-1,3-dihydro-isoindol-2-yl}-butyl)-amide], the IC50 in assay [1] worked out at 32 nM; in assay [2], 680 nM. The Ki in assay [3] amounted to 260 nM.
`COc1ccc([C@@H](CCCNC(=O)c2conc2C)N2C(=O)c3cccc(N4CCN([C@H](C)c5ccccc5)CC4)c3C2=O)cc1OC` [Cpd 158, (R)-3-methyl-isoxazole-4-carboxylic acid (4-(3,4-dimethoxy-phenyl)-4-{1,3-dioxo-4-[4-(1R)-(1-phenyl-ethyl)-piperazin-1-yl]-1,3-dihydro-isoindol-2-yl}-butyl)-amide]: the IC50 came to 16 nM in assay [1] and 330 nM in assay [2]. Besides, the Ki in assay [3] was found to be 99 nM.

In general, IC50 refers to the point on the concentration scale where inhibition reaches its midpoint. One may read the Ki as a dissociation constant, usually derived from enzyme kinetics or from competition with a known ligand. A low value points to a stronger hold on the target.
